Assay [1] has as its system effects of serotonin. As to conditions: rats, compound 48/80; known serotonin-antagonists; cited from earlier work.
Assay [2] has as its system compound 48/80-induced lethality. The assay can be described thus: Protection of rats from compound 48/80-induced lethality. It is filed as in vivo, rats of an inbred Wistar strain. Particulars: protection of 50% of animals, survival after 4 hours; for ED50: Rattus norvegicus, 4 h, read-out: Compound 48/80 lethality test in rats ED50, s.c. or p.o. 1 h before compound 48/80 0.5 mg/kg i.v. In outline:
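Male inbred Wistar rats (240-260 g), starved overnight, dosed subcutaneously or orally with compound or 0.9% NaCl before compound 48/80 challenge. Survival at 4 hours counted as protection. ED50 in mg/kg is the dose protecting 50% of animals from lethality.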

Assay [3] has as its system effects of serotonin. Description: Antagonistic activity on the effects of serotonin in the gastric lesion test (lesions induced by compound 48/80). Particulars: for ED50: Rattus norvegicus, po, read-out: gastric lesion test ED50. The class given is in vivo, rats of a Wistar inbred strain. In outline: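 Fasted male Wistar rats (220–250 g) dosed orally with compound; 1 h later 2.5 mg/kg s.c. H1 antagonist, then compound 48/80 i.v. Stomachs examined 4 h afterwards for distension and glandular lesions (scored 0 to +++); ED50 is the oral dose (mg/kg) abolishing both in 50% of rats.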

Setting [4] is: compound 48/80 1 mg/kg i.v., distension and lesions of stomach completely absent in 50% of rats.

The source of these data is patent US4839374A, “4-((Bicyclic heterocyclyl)-methyl and -hetero)-piperidines” (Janssen Pharmaceutica, N.V., priority 1987, dated 1989).

Structures are written as SMILES. Read-outs that look alike come from different tables or passages of the source.

Regarding `CN(C)CCCSc1ccccc1NC(=O)/C=C/c1ccccc1` [cinanserin], the “prevention of cyanosis of ears and extremities, lesions in the glandular area of the stomach and abnormal gastric distension” value (from here on “prevention”) in the assay on effects of serotonin [1] is “prevent completely”.
Regarding `CN1C[C@H](CNC(=O)OCc2ccccc2)C[C@@H]2c3cccc4c3c(cn4C)C[C@H]21` [metergoline], in the assay on effects of serotonin [1], the “prevention” value is given as “prevent completely”.
Take `CC[C@@H](CO)NC(=O)[C@@H]1C=C2c3cccc4c3c(cn4C)C[C@H]2N(C)C1` [methysergide]: in the assay with effects of serotonin [1], the “prevention” value is “prevent completely”.
Turning to `CN1CCC(=C2c3ccccc3C=Cc3ccccc32)CC1` [cyproheptadine], the “prevention” value in the assay with effects of serotonin [1] is given as “prevent completely”.
Turning to `NC(=O)C1(N2CCCCC2)CCN(CCCC(=O)c2ccc(F)cc2)CC1` [pipamperone], the “prevention” value in the assay with effects of serotonin [1] is reported as “prevent completely”.
Regarding `O=C(CCCN1CCC2(CC1)C(=O)NCN2c1ccccc1)c1ccc(F)cc1` [spiperone], in the assay on effects of serotonin [1], the “prevention” value is “prevent completely”.
Regarding `CN1CCC(=C2c3ccccc3CCc3sccc32)CC1` [pizotifen], the “prevention” value with effects of serotonin [1] was “prevent completely”.
In the case of `CN1CCN2c3ccccc3Cc3ccccc3C2C1` (stereo not drawn) [mianserin], the “prevention” value in the assay on effects of serotonin [1] was “prevent completely”.
As for `Nc1ccccc1C(=O)NCCN1CCC(Cc2nc3ccccc3n2Cc2cccs2)CC1` [Compound 478, 2-amino-N-[2-[4-[[1-(2-thienylmethyl)-1H-benzimidazol-2-yl]methyl]-1-piperidinyl]ethyl]benzamide], the results for the ED50 (in assay [2]; in the assay on effects of serotonin [3]) were 0.02 mg/kg and 0.04 mg/kg, respectively.
For `O=[N+]([O-])c1cc[n+]([O-])cc1NCCN1CCC(Cc2nc3ccccc3n2Cc2ccc(F)cc2)CC1` [Compound 379, N-[2-[4-[[1-[(4-fluorophenyl)methyl]-1H-benzimidazol-2-yl]methyl]-1-piperidinyl]ethyl]-4-nitro-3-pyridinamine, 1-oxide], the ED50 was 0.08 mg/kg in assay [2] and 0.31 mg/kg in the assay with effects of serotonin [3] (setting [4]).
The like results for `COc1ccc(CCN2CCC(Cc3nc4ccccc4n3Cc3ccco3)CC2)cc1` [Compound 229] were, in that order, 0.04 mg/kg and 0.63 mg/kg.
The like results for `COc1ccc(CCN2CCC(Cc3nc4cccnc4n3Cc3cccs3)CC2)cc1` [Compound 238] were, in that order, 0.08 mg/kg and 0.63 mg/kg.
For `S=C=NCCN1CCC(Cc2nc3ccccc3n2Cc2ccco2)CC1` [Compound 399], the ED50 in assay [2] worked out at 0.02 mg/kg; in the assay with effects of serotonin [3], 0.04 mg/kg.
`c1coc(Cn2c(CC3CCN(CCNc4nc5cnccc5[nH]4)CC3)nc3ccccc32)c1` [Compound 418, N-[2-[4-[[1-(2-furanylmethyl)-1H-benzimidazol-2-yl]methyl]-1-piperidinyl]ethyl]-1H-imidazo[4,5-c]pyridin-2-amine]: the ED50 came out at 0.02 mg/kg in assay [2] and 0.04 mg/kg with effects of serotonin [3].
With `CNC(=S)NCCN1CCC(Cc2nc3ccccc3n2Cc2ccc(F)cc2)CC1` [Compound 428, N-[2-[4-[[1-[(4-fluorophenyl)methyl]-1H-benzimidazol-2-yl]methyl]-1-piperidinyl]ethyl]-N'-methylthiourea], the ED50 in assay [2] turned out to be 0.04 mg/kg; in the assay with effects of serotonin [3] (setting [4]), 0.01 mg/kg.
Consider `c1cnc(NCCN2CCC(Cc3nc4ccccc4n3Cc3cccs3)CC2)nc1` [Compound 336], for which the ED50 was 0.01 mg/kg in assay [2] and 0.08 mg/kg in the assay on effects of serotonin [3].
`O=C(CCCN1CCC(Cc2nc3cccnc3n2Cc2ccc(F)cc2)CC1)c1ccc(F)cc1` [Compound 228]: the “Compound 48/80 lethality test in rats ED50” value in assay [2] (s.c. or p.o. 1 h before compound 48/80 0.5 mg/kg i.v., 0.5 mg/kg, 240 min) came out at 0.04 mg/kg body weight. Further, in the assay on effects of serotonin [3] (oral, compound 48/80 1 mg/kg i.v., distension and lesions of stomach completely absent in 50% of rats, 1 mg/kg), the “gastric lesion test ED50” value was determined as 0.01 mg/kg body weight.
As for `CCOCCN1CCC(Cc2nc3cccnc3n2Cc2ccc(F)cc2)CC1` [Compound 126], the ED50 in assay [2] turned out to be 0.04 mg/kg; in the assay on effects of serotonin [3] (setting [4]), 0.63 mg/kg.
The like results for `Fc1ccc(Cn2c(CC3CCN(C4CCN(c5ncccn5)CC4)CC3)nc3ccccc32)cc1` [Compound 347, 4-[[1-[(4-fluorophenyl)methyl]-1H-benzimidazol-2-yl]methyl]-1'-(2-pyrimidinyl)-[1,4'-bipiperidine]] were, in that order, 0.08 mg/kg and 0.63 mg/kg.
In the case of `CNc1ccccc1C(=O)NCCN1CCC(Cc2nc3ccccc3n2Cc2ccc(F)cc2)CC1` [Compound 467, N-[2-[4-[[1-[(4-fluorophenyl)methyl]-1H-benzimidazol-2-yl]methyl]-1-piperidinyl]ethyl]-2-(methylamino)benzamide], the figures for the ED50 (in assay [2]; with effects of serotonin [3]) were 0.04 mg/kg and 0.08 mg/kg, respectively.
Regarding `CC(C)N1CCC(Cc2nc3ccccc3n2Cc2ccccc2)CC1` [Compound 94], the ED50 in assay [2] was determined as 0.08 mg/kg; with effects of serotonin [3] (setting [4]), 0.63 mg/kg.
Consider `c1csc(Cn2c(CC3CCN(CCNc4nc5cnccc5[nH]4)CC3)nc3ccccc32)c1` [Compound 416, N-[2-[4-[[1-(2-thienylmethyl)-1H-benzimidazol-2-yl]methyl]-1-piperidinyl]ethyl]-1H-imidazo[4,5-c]pyridin-2-amine], for which the ED50 (in assay [2]; in the assay on effects of serotonin [3]) was 0.04 mg/kg in each case.
Take `Fc1ccc(Cn2c(CC3CCNCC3)nc3ccccc32)cc1` [Compound 47, 1-[(4-fluorophenyl)methyl]-2-(4-piperidinylmethyl)-1H-benzimidazole]: the ED50 in assay [2] is 0.08 mg/kg; in the assay on effects of serotonin [3] (setting [4]), 0.63 mg/kg.
Turning to `Fc1ccc(Cn2c(CC3CCN(CCOc4ncccn4)CC3)nc3ccccc32)cc1` [Compound 391, 1-[(4-fluorophenyl)methyl]-2-[[1-[2-(2-pyrimidinyloxy)ethyl]-4-piperidinyl]methyl]-1H-benzimidazole], the ED50 (in assay [2]; in the assay on effects of serotonin [3] (setting [4])) was 0.02 mg/kg each time.
`Fc1ccc(Cn2c(CC3CCN(Cc4cn5ccccc5n4)CC3)nc3ccccc32)cc1` [Compound 184]: the ED50 worked out at 0.02 mg/kg in assay [2] and 0.63 mg/kg with effects of serotonin [3] (setting [4]).
In the same order, the values of `Fc1ccc(Cn2c(CC3CCN(CCN4CCOCC4)CC3)nc3ccccc32)cc1` [Compound 131] are 0.02 mg/kg and 0.16 mg/kg.
Regarding `Cc1cc(NCCN2CCC(Cc3nc4ccccc4n3Cc3ccc(F)cc3)CC2)nc(Cl)n1` [Compound 383, 2-chloro-N-[2-[4-[[1-[(4-fluorophenyl)methyl]-1H-benzimidazol-2-yl]methyl]-1-piperidinyl]ethyl]-6-methyl-4-pyrimidinamine], the ED50 in assay [2] was 0.04 mg/kg; in the assay on effects of serotonin [3] (setting [4]), 0.16 mg/kg.
Consider `c1ccc(Cn2c(CC3CCN(CCNc4nccs4)CC3)nc3cccnc32)cc1` [Compound 362], for which the ED50 stood at 0.08 mg/kg in assay [2] and 0.63 mg/kg in the assay on effects of serotonin [3] (setting [4]).
